Tested on: Plasmodium berghei
Test: Luciferase/luciferin-expressing antifolate-resistant parasites were used to infect a culture of HepG2 cells that were pre-incubated with compounds. Infected hepatocytes emit light due to the luciferase reaction. Assay results are presented as the percent inhibition of light emission compared to control. […]
Assay type: functional
Conditions: sporozoite; for IC90: read-out: LUCIFERASE INFECTION ASSAY - IC90

| Structure (SMILES) | IC90 [µM] | other results |
| --- | --- | --- |
| OC(COc1ccc2cc(Br)ccc2c1)CN1CCCC1 (stereo not given) | > 9.42 | IC50 (FFLUC_HILL_SLOPE 1.55, FFLUC_R_SQUARED 0.115, PBLUC_HILL_SLOPE 1.17, PBLUC_R_SQUARED 0.42, read-out: LUCIFERASE INFECTION ASSAY - IC50): 4.73 µM |
| COCCn1c(C)cc(C(=O)CSc2nnc(C)s2)c1C | > 10.1 | IC50 (FFLUC_HILL_SLOPE 1.54, FFLUC_R_SQUARED 0.663, PBLUC_HILL_SLOPE 0.577, PBLUC_R_SQUARED 0.574, read-out: LUCIFERASE INFECTION ASSAY - IC50): 0.418 µM |
| O=[N+]([O-])c1ccc(Sc2ccc(F)cc2)c2nonc12 | > 11.3 | IC50 (FFLUC_HILL_SLOPE 1.53, FFLUC_R_SQUARED 0.17, HEPG2TOX_HILL_SLOPE 11.1, HEPG2TOX_R_SQUARED 0.647, PBLUC_HILL_SLOPE 22.5, PBLUC_R_SQUARED 0.184, read-out: LUCIFERASE INFECTION ASSAY - IC50): 10.5 µM |
| O=C(/C=c1/[nH]c(=O)/c(=C/c2ccc(-c3ccccc3F)s2)s1)c1ccncc1 | > 10 | IC50 (FFLUC_HILL_SLOPE 1.61, FFLUC_R_SQUARED 0.374, read-out: LUCIFERASE INFECTION ASSAY - IC50): > 10 µM |
| CSc1nnc(SC2=CC(=O)CC(c3ccccc3)C2)s1 (stereo not given) | > 9.87 | IC50 (FFLUC_HILL_SLOPE 1.55, FFLUC_R_SQUARED 0.208, HEPG2TOX_HILL_SLOPE 8.38, HEPG2TOX_R_SQUARED 0.886, read-out: LUCIFERASE INFECTION ASSAY - IC50): > 9.87 µM |
| COC(=O)c1c(C)[nH]c(C2=NNC(=NC3CC3)SC2)c1C | 0.0583 | IC50 (FFLUC_HILL_SLOPE 1.61, FFLUC_R_SQUARED 0.895, PBLUC_HILL_SLOPE 1.62, PBLUC_R_SQUARED 0.572, read-out: LUCIFERASE INFECTION ASSAY - IC50): 0.015 µM |
| OC1CCC(Nc2nn3cc(-c4ccccc4)nc3s2)CC1 (stereo not given) | 0.247 | IC50 (FFLUC_HILL_SLOPE 1.59, FFLUC_R_SQUARED 0.907, PBLUC_HILL_SLOPE 0.891, PBLUC_R_SQUARED 0.938, read-out: LUCIFERASE INFECTION ASSAY - IC50): 0.0209 µM |
| Cc1cc(O)cc2c1C(=O)/C(=C/c1ccccc1F)O2 | 11.8 | IC50 (FFLUC_HILL_SLOPE 1.55, FFLUC_R_SQUARED 0.688, HEPG2TOX_HILL_SLOPE 12, HEPG2TOX_R_SQUARED 0.541, PBLUC_HILL_SLOPE 35.8, PBLUC_R_SQUARED 0.416, read-out: LUCIFERASE INFECTION ASSAY - IC50): 11.1 µM |
| COc1ccc(C(C)(C)C)cc1NC(=O)COC(=O)c1c(-c2ccccc2)csc1NC(=O)C=C(C)C | 8.12 | IC50 (FFLUC_HILL_SLOPE 1.58, FFLUC_R_SQUARED 0.454, PBLUC_HILL_SLOPE 2.65, PBLUC_R_SQUARED 0.35, read-out: LUCIFERASE INFECTION ASSAY - IC50): 3.55 µM |
| N#CN=c1nc(/C=C/c2ccc(Br)cc2)[nH]c(-c2ccccc2O)n1 | 5.46 | IC50 (FFLUC_HILL_SLOPE 1.52, FFLUC_R_SQUARED 0.887, PBLUC_HILL_SLOPE 1.8, PBLUC_R_SQUARED 0.711, read-out: LUCIFERASE INFECTION ASSAY - IC50): 1.61 µM |
| N#C/C(=N\Nc1ccc(F)cc1)S(=O)(=O)c1ccc(Cl)cc1 | 4.33 | IC50 (FFLUC_HILL_SLOPE 1.6, FFLUC_R_SQUARED 0.662, HEPG2TOX_HILL_SLOPE 1.9, HEPG2TOX_R_SQUARED 0.994, PBLUC_HILL_SLOPE 9.61, PBLUC_R_SQUARED 0.336, read-out: LUCIFERASE INFECTION ASSAY - IC50): 3.44 µM |
| N#CC(C#N)=NNc1ccccc1Oc1ccc(Cl)cc1Cl | > 9.96 | IC50 (FFLUC_HILL_SLOPE 1.54, FFLUC_R_SQUARED 0.588, HEPG2TOX_HILL_SLOPE 1.18, HEPG2TOX_R_SQUARED 0.604, read-out: LUCIFERASE INFECTION ASSAY - IC50): > 9.96 µM |
| CCn1c(SCC(=O)N2N=C(c3ccco3)CC2c2ccco2)nc2ccsc2c1=O (stereo not given) | > 10 | IC50 (FFLUC_HILL_SLOPE 1.6, FFLUC_R_SQUARED 0.281, read-out: LUCIFERASE INFECTION ASSAY - IC50): > 10 µM |
| Cc1ccc(-n2c(N(C)C)nc(/C=C(\C#N)C(=O)NC(C)c3ccccc3)c2Cl)cc1 (stereo not given) | > 10 | IC50 (FFLUC_HILL_SLOPE 1.62, FFLUC_R_SQUARED 0.252, read-out: LUCIFERASE INFECTION ASSAY - IC50): > 10 µM |
| O=C1/C(=C\c2cccnc2)SC(=S)N1Cc1ccncc1 | > 10.5 | IC50 (FFLUC_HILL_SLOPE 1.57, FFLUC_R_SQUARED 0.87, HEPG2TOX_HILL_SLOPE 6.45, HEPG2TOX_R_SQUARED 0.698, PBLUC_HILL_SLOPE 14.6, PBLUC_R_SQUARED 0.23, read-out: LUCIFERASE INFECTION ASSAY - IC50): 10.5 µM |
| CC1(C)CCc2cc(/C=N/C(C#N)C(=N)C#N)ccc2O1 (stereo not given) | > 11.8 | IC50 (FFLUC_HILL_SLOPE 1.61, FFLUC_R_SQUARED 0.207, read-out: LUCIFERASE INFECTION ASSAY - IC50): > 11.8 µM |
| COCC(C)n1c(C)cc(C(=O)CN2C(=O)c3ccccc3S2(=O)=O)c1C (stereo not given) | > 10 | IC50 (FFLUC_HILL_SLOPE 1.61, FFLUC_R_SQUARED 0.328, read-out: LUCIFERASE INFECTION ASSAY - IC50): > 10 µM |
| CC(OC(=O)c1c2c(nc3ccccc13)/C(=C/c1cccs1)CCC2)C(=O)Nc1ccccc1C#N (stereo not given) | 3.58 | IC50 (FFLUC_HILL_SLOPE 1.58, FFLUC_R_SQUARED 0.34, HEPG2TOX_HILL_SLOPE 8.31, HEPG2TOX_R_SQUARED 0.803, PBLUC_HILL_SLOPE 17.4, PBLUC_R_SQUARED 0.614, read-out: LUCIFERASE INFECTION ASSAY - IC50): 3.16 µM |
| Cc1ccc(N2C(=O)c3ccccc3C(C=NNC(=O)c3ccc(CSc4ccc(Cl)cc4)cc3)C2=O)cc1C (stereo not given) | > 10 | IC50 (FFLUC_HILL_SLOPE 1.61, FFLUC_R_SQUARED 0.665, HEPG2TOX_HILL_SLOPE 1.11, HEPG2TOX_R_SQUARED 0.878, read-out: LUCIFERASE INFECTION ASSAY - IC50): > 10 µM |
| FC(F)(F)c1ccc(N/N=C/c2sc(N3CCOCC3)nc2-c2ccccc2)c(Cl)c1 | > 10 | IC50 (FFLUC_HILL_SLOPE 1.6, FFLUC_R_SQUARED 0.81, read-out: LUCIFERASE INFECTION ASSAY - IC50): > 10 µM |
| CC(C)n1ncc2c(C(=O)Nc3sccc3C#N)cc(C3CC3)nc21 | > 10 | IC50 (FFLUC_HILL_SLOPE 1.6, FFLUC_R_SQUARED 0.58, HEPG2TOX_HILL_SLOPE 1.47, HEPG2TOX_R_SQUARED 0.871, PBLUC_HILL_SLOPE 3.01, PBLUC_R_SQUARED 0.133, read-out: LUCIFERASE INFECTION ASSAY - IC50): 5.55 µM |
| O=C(c1cnc2cc3c(cc2c1)OCCCO3)c1ccccc1O | 5.25 | IC50 (FFLUC_HILL_SLOPE 1.6, FFLUC_R_SQUARED 0.767, HEPG2TOX_HILL_SLOPE 8.36, HEPG2TOX_R_SQUARED 0.65, PBLUC_HILL_SLOPE 1.47, PBLUC_R_SQUARED 0.802, read-out: LUCIFERASE INFECTION ASSAY - IC50): 1.17 µM |
| CCN(c1ccc(-c2csc(Nc3ccc4c(c3)OCCO4)n2)cc1)S(C)(=O)=O | 5.7 | IC50 (FFLUC_HILL_SLOPE 1.56, FFLUC_R_SQUARED 0.608, HEPG2TOX_HILL_SLOPE 4.65, HEPG2TOX_R_SQUARED 0.413, PBLUC_HILL_SLOPE 3.4, PBLUC_R_SQUARED 0.614, read-out: LUCIFERASE INFECTION ASSAY - IC50): 2.99 µM |
| Cc1c(C)n(CCCO)c2ncn3nc(-c4ccc(F)cc4)nc3c12 | 5.99 | IC50 (FFLUC_HILL_SLOPE 1.57, FFLUC_R_SQUARED 0.582, PBLUC_HILL_SLOPE 0.753, PBLUC_R_SQUARED 0.936, read-out: LUCIFERASE INFECTION ASSAY - IC50): 0.324 µM |
| CC(=O)N(c1nc(/C=C2\CCOc3ccc(F)cc3C2=O)cs1)c1cccc(C)c1C | > 10 | IC50 (FFLUC_HILL_SLOPE 1.6, FFLUC_R_SQUARED 0.338, PBLUC_HILL_SLOPE 1.6, PBLUC_R_SQUARED 0.162, read-out: LUCIFERASE INFECTION ASSAY - IC50): > 10 µM |
| Cc1noc(C)c1COc1cccc(C(=O)Nc2cccc(S(=O)(=O)Nc3cccc(C(F)(F)F)c3)c2)c1 | > 10 | IC50 (FFLUC_HILL_SLOPE 1.54, FFLUC_R_SQUARED 0.286, HEPG2TOX_HILL_SLOPE 4.14, HEPG2TOX_R_SQUARED 0.909, PBLUC_HILL_SLOPE 1.42, PBLUC_R_SQUARED 0.59, read-out: LUCIFERASE INFECTION ASSAY - IC50): 6.04 µM |
| Nc1nc2c(C(=O)c3cccs3)nnn2c2ccc(Cl)cc12 | 0.489 | IC50 (FFLUC_HILL_SLOPE 1.53, FFLUC_R_SQUARED 0.767, PBLUC_HILL_SLOPE 0.914, PBLUC_R_SQUARED 0.801, read-out: LUCIFERASE INFECTION ASSAY - IC50): 0.0442 µM |
| COc1ccc2[nH]cc(CCNC(=O)c3ccc(-c4cccc(NC(C)=O)c4)nc3NCc3cccnc3)c2c1 | 5.13 | IC50 (FFLUC_HILL_SLOPE 1.54, FFLUC_R_SQUARED 0.292, HEPG2TOX_HILL_SLOPE 0.912, HEPG2TOX_R_SQUARED 0.95, PBLUC_HILL_SLOPE 1.88, PBLUC_R_SQUARED 0.271, read-out: LUCIFERASE INFECTION ASSAY - IC50): 1.59 µM |
| CCCCCC1/C(=N\O)CC(c2ccccc2)N(C)C1c1ccccc1 (stereo not given) | > 9.42 | IC50 (FFLUC_HILL_SLOPE 1.59, FFLUC_R_SQUARED 0.859, read-out: LUCIFERASE INFECTION ASSAY - IC50): > 9.42 µM |
| O=C(OCCSc1ccc([N+](=O)[O-])c2nonc12)c1ccc(F)cc1 | > 9.08 | IC50 (FFLUC_HILL_SLOPE 1.52, FFLUC_R_SQUARED 0.911, HEPG2TOX_HILL_SLOPE 8.69, HEPG2TOX_R_SQUARED 0.77, PBLUC_HILL_SLOPE 16.5, PBLUC_R_SQUARED 0.0304, read-out: LUCIFERASE INFECTION ASSAY - IC50): > 9.08 µM |

Source: ChEMBL document CHEMBL4483862, “Open-source discovery of chemical leads for next-generation chemoprotective antimalarials” (2018)
